From patent US20100210532A1, “USE OF NEUROPEPTIDE SF, ALONE OR IN COMBINATION WITH GLP-2, AS A THERAPEUTIC AGENT” (priority 2007, published 2010)
Where no end group is shown, it is not given here.

What was measured:
[1] = tested on: HIV-1IIIB; assay: HIV-1 antiviral assay in CEM-SS cells (MTS readout); details: positive controls of the HIV-1 assay
[2] = tested on: HCMV strain AD169; assay: HCMV plaque formation assay in MRC-5 cells; details: for inhibition of HCMV plaque formation as compared to the virus control experiment: 10 micrograms per ml, MRC-5 cells, 7-10 days, combination 0.95 mole peptide 1 and 1.05 mole peptide 2
[3] = tested on: Tumor Necrosis Factor-α (TNF-α); assay: Th1/Th2 cytokine profiling assay, TNF-α; format: cell-based, mouse; details: 10 micrograms per ml, Ovalbumin-restimulated Balb/c spleen cells, 72 hours; for production of TNF-alpha in murine spleen cells, induced by: combination 0.95 mole peptide 1 and 1.05 mole peptide 2
From the text: (§1) The Balb/c mice (originated in 1923, it is a popular strain and is used in many different research disciplines. […] On day 50, spleens of the mice were harvested (3 weeks after last boost with Ovalbumin). […] This kit can be used to measure Interleukin-2 (IL-2), Interleukin-4 (IL-4), Interleukin-5 (IL-5), Interferon-γ (IFN-γ), and Tumor Necrosis Factor-α (TNF-α) protein levels in a single sample. The kit performance has been optimized for analysis of physiologically relevant concentrations ([…] levels) of specific cytokine proteins in tissue culture supernatants and serum samples.

[4] = tested on: Interleukin-4 (IL-4); assay: Th1/Th2 cytokine profiling assay, IL-4; format: cell-based, mouse; details: 10 micrograms per ml, Ovalbumin-restimulated Balb/c spleen cells, 72 hours; for production of IL-4 in murine spleen cells, induced by: combination 0.95 mole peptide 1 and 1.05 mole peptide 2
From the text: as §1

[5] = tested on: Interferon-γ (IFN-γ); assay: Th1/Th2 cytokine profiling assay, IFN-γ; format: cell-based, mouse; details: 10 micrograms per ml, Ovalbumin-restimulated Balb/c spleen cells, 72 hours
From the text: as §1

[6] = tested on: Human A549 cells; assay: Apoptosis prevention assay (C2 ceramide, Annexin-5); format: cell-based; details: 10 micrograms per ml, 30 min pretreatment
[7] = tested on: HUVEC; assay: Endothelial tube formation assay; format: cell-based, human; details: 10 micrograms per ml, 20 hours
Procedure: The endothelial tube formation assay is based on the ability of endothelial cells to form three-dimensional capillary-like tubular structures when cultured on a gel of basement membrane extract. The endothelial tube formation assay represents a powerful model for studying inhibition and induction of angiogenesis. Pre-labeled HUVEC with Calcein AM were seeded in a 96-well culture plate coated with extracellular metrix (Chemicon international Cat. ECM625) and treated with test peptides-10 micrograms per ml-in full growth medium. […] control was vehicle only. […] Duplicate wells for each treatment were photographed and quantitatevily analyzed for an average tubule length using image analysis software ImageProPlus. Raw data were expressed as average tubule […]±standard deviation. Statistic p values were computed using the Student's t-test.

[8] = tested on: Interleukin-5 (IL-5); assay: Th1/Th2 cytokine profiling assay, IL-5; format: cell-based, mouse; details: 10 micrograms per ml, Ovalbumin-restimulated Balb/c spleen cells, 72 hours; for change of the production of IL-5 in murine spleen cells: combination 0.95 mole peptide 1 and 1.05 mole peptide 2
From the text: as §1

[9] = tested on: Primary Human endothelial cells (HUVEC); assay: Endothelial cell migration assay; format: cell-based; details: 10 micrograms per ml, 22 hours
[10] = tested on: hepatitis B virus (HBV) ayw strain; assay: HBV experimental assay system, HepG2-2.2.15 cells, secreted HBV DNA by TaqMan PCR; format: cell-based; details: 10 micrograms per ml, six days, combination 0.95 mole peptide 1 and 1.05 mole peptide 2
[11] = tested on: Interleukin-2 (IL-2); assay: Th1/Th2 cytokine profiling assay, IL-2; format: cell-based, mouse; details: 10 micrograms per ml, Ovalbumin-restimulated Balb/c spleen cells, 72 hours; for production of IL-2 in murine spleen cells, induced by: combination 0.95 mole peptide 1 and 1.05 mole peptide 2
From the text: as §1

| Compound | antiviral activity of positive control compounds [1] | antiviral activity of positive control compound ([2]; positive control of the HCMV assay) | TNF-a spleen cells; TH1 response (% of control) [3] | production of TNF-alpha in murine spleen cells, induced by [3] | IL-4 spleen cells; TH2 response (% of control) [4] | production of IL-4 in murine spleen cells, induced by [4] | inhibition of HCMV plaque formation as compared to the virus control experiment [2] | IFNγ spleen cells; TH1 response (% of control) [5] | production of IFN-γ in murine spleen cells, induced by ([5]; combination 0.95 mole peptide 1 and 1.05 mole peptide 2) | reduction of the ceramide-induced apoptosis on human lung cells [6] | inhibition of the tube formation of human endothelial cells [7] | IL-5 spleen cells; TH2 response (% of control) [8] | change of the production of IL-5 in murine spleen cells [8] | inhibition of the migration of human endothelial cells [9] | inhibition of HBV replication as compared to the virus control infection [10] | IL-2 spleen cells (% of control) [11] | production of IL-2 in murine spleen cells, induced by [11] | production of IFN-γ in murine spleen cells, decreased by [5] |
| --- | --- | --- | --- | --- | --- | --- | --- | --- | --- | --- | --- | --- | --- | --- | --- | --- | --- | --- |
| Cc1cn([C@H]2C[C@H](N=[N+]=[N-])[C@@H](CO)O2)c(=O)[nH]c1=O [AZT] | expected levels of antiviral activity | – | – | – | – | – | – | – | – | – | – | – | – | – | – | – | – | – |
| Nc1nc(O)c2ncn(COC(CO)CO)c2n1 [Ganciclovir, reference compound] | – | expected levels of antiviral activity | – | – | – | – | – | – | – | – | – | – | – | – | – | – | – | – |
| CC(C)(C)NC(=O)[C@@H]1CN(Cc2cccnc2)CCN1C[C@@H](O)C[C@@H](Cc1ccccc1)C(=O)N[C@H]1c2ccccc2C[C@H]1O [indinavir] | expected levels of antiviral activity | – | – | – | – | – | – | – | – | – | – | – | – | – | – | – | – | – |
| His-Ala-Asp-Gly-Ser-Phe-Ser-Asp-Glu-Met-Asn-Thr-Ile-Leu-Asp-Asn-Leu-Ala-Ala-Arg-Asp-Phe-Ile-Asn-Trp-Leu-Ile-Gln-Thr-Lys-Ile-Thr-Asp-OH [Peptide 2] | – | – | 143.7 % of control | 43.7% | 104.4 % of control | did not significantly change | 18.8% | 132.7 % of control | 32.7% | did not reduce | 12% | 108.4 % of control | did not significantly change | did not inhibit | 59.2% | 183.3 % of control | 83.3% | – |
| Ser-Gln-Ala-Phe-Leu-Phe-Gln-Pro-Gln-Arg-Phe-NH2 (SQAFLFQPQRF-NH2) [Peptide 1] | – | – | 106.3 % of control | did not significantly change | 242.2 % of control | 142.2% | 31.3% | 68.0 % of control | – | 16.45% | 19% | 91.6 % of control | did not significantly change | 33% | 16.7% | 112.4 % of control | did not significantly change | 32.0% |
